The test system of series [1] is HT1080 human fibro sarcoma cell. In words: SRB cell proliferation assay, HT1080. Type of series: cell-based. To be noted: HT-1080, 72 h, 3 days. The method, then:
(§1) ^a A series of indirubin derivatives were tested at five concentrations for their effects on various human cancer cell lines using SRB assay, as described in the Experimental Section.
(§2) Cells (A549, HT1080, HCT116, K562, SNU638, KB, MCF-7) were counted, diluted to 5×10^4 cells/mL with fresh medium (MEME, DMEM or RPMI containing 10% FBS), and added 190 μL of cell suspension to 96-well plates containing various concentrations of test compounds (10 μL in 10% aqueous DMSO). Test plates were incubated for 3 days at 37° C. in CO2 incubator. For zero day controls, cells were incubated for 30 min at 37° C. in CO2 incubator. All treatments were performed in triplicate. After the incubation periods, cells were fixed with 50 μL of cold 50% TCA at 4° C. for 30 min, washed 5 times with tap water, and air-dried. The fixed cells were stained with 0.4% SRB solution in 1% aqueous acetic acid at room temperature for 1 h. Free SRB solution was then removed by rinsing 5 times with 1% acetic acid, and air-dried. The bound dye was dissolved with 200 µL of 10 mM Tris-base (pH 10.0), and absorbance was determined at 515 nm using an ELISA microplate reader. Finally, the absorbance values obtained with each of the treatment procedures were averaged, and the average values obtained with the zero day control were subtracted.

For the next series, the system named is K562 human leukemia cell. In words: SRB cell proliferation assay, K562. Type of series: cell-based. To be noted: K562, 72 h, 3 days. As for the experimental part:
as §1, §2

The subject of series [2] is A549 human lung cancer cell. In words: SRB cell proliferation assay, A549. Format: cell-based. The settings on record: A549, 72 h, 3 days. As for the experimental part: as §1, §2
The test system of series [3] is HCT116 human colon cancer cell. In words: SRB cell proliferation assay, HCT116. To be noted: 3 days. Format: cell-based. As for the experimental part:
as §1, §2

Series [4] relates to KB human nasopharyngeal cancer cell. In words: SRB cell proliferation assay, KB. Type of series: cell-based. The settings on record: 72 h, 3 days. As for the experimental part:
as §1, §2

The subject of a further series is CDK1. The settings on record: from a report; read-out: CDK1 inhibitory activity IC50; cited from earlier work.
The test system of series [5] is MCF-7 human breast cancer cell. In words: SRB cell proliferation assay, MCF-7. Format: cell-based. To be noted: MCF7, 72 h, 3 days. As for the experimental part: as §1, §2
Series [6] deals with SNU638 human stomach cancer cell. In words: SRB cell proliferation assay, SNU638. Format: cell-based. To be noted: SNU-638, 72 h, 3 days. As for the experimental part:
as §1, §2

The next series deals with PCNA. In words: Immunohistochemical staining for PCNA in tumor. Format: in vivo, SD rats. To be noted: 5 mg/kg i.v. As for the experimental part:
(§3) The excised solid tumors were fixed in 10% buffered formalin and embeddedin paraffin. For optical microscopic examinations, 4-μm sectioned tissues were stained with H&E. Immunohistochemical staining was performed with the avidin-biotin complex method using anti-PCNA antibodies. The immune reactions were visualized with 3,3′-diaminobenzidine and counterstained with Mayer's hematoxylin. A TUNEL assay was performed using an ApopTag PlusPeroxidase In Situ Apoptosis Detection kit (Intergen, Purchase, N.Y.) according to the manufacturer's instructions. Briefly, the slides were deparaffinized and treated with 20 μg/mL proteinase K at 37° C. for 15 min to enhance staining. After immersion 3% hydrogen peroxide to block the endogenous peroxidase, the slides were incubated with a reaction buffer containing terminal de-oxynucleotidyl transferase at 37° C. for 1 h. The slides were then incubated with a peroxidase-conjugated anti-digoxigenin antibody for 30 min, and the reaction products were visualized with a 0.03% 3,3′-diaminobenzidine solution containing 2 mM hydrogen peroxide. The slides were counterstained with 0.5% methyl green.

Series [7] deals with RK3E-ras-Luc cells. In words: Histology (H&E) of tumor tissue. Format: in vivo, SD rats. To be noted: 5 mg/kg i.v. As for the experimental part:
as §3

For a further series, the target named is CDK1/cyclin B (Homo sapiens, UniProt P06493). In words: CDK1/cyclin B kinase assay. Type of series: biochemical. To be noted: read-out: IC50 in CDK1/cycline B kinase assay. An excerpt:
The reaction was initiated by the addition of the MgATP mix.

Series [8] concerns RK3E-ras-Luc cells. In words: TUNEL assay on tumor sections. Type of series: in vivo, SD rats. The settings on record: 5 mg/kg i.v. The method, then: as §3
A short description of series [9]: Tumor xenograft animal model, body weight. The settings on record: 5 mg/kg i.v. every other day, five times. Type of series: in vivo, SD rats. An excerpt:
The k-ras-transformed rat kidney epithelial cell line (RK3E-ras) were maintained in DMEM supplemented with 10% FCS, 100 units/mL penicillin, and 100 Ag/mL streptomycin. RK3E-ras cells were kindly provided by Dr. Eric Fearon (University of Michigan Medical School, Ann Arbor, Mich.) and have been described in the previous report. Male SD rats (6 weeks of age) were used to examine the inhibition of tumor growth in vivo. RK3E-ras-Luc cells (5×10^6) were implanted subcutaneously into the flank of the rats on Day 0, and rats were grouped randomly (5 […]/group) on Day 5 as previously described. […] The animals were sacrificed 48 hr after the final administration, and rat weights and tumor volumes were measured. The tumor growth volumes were calculated as follows: V=(ab^2)/2, where, a is the longest diameter and b is the shortest diameter of the tumor. All experiments were conducted under protocols approved by the Animal Care and Use Committee at Chosun University School of Dentistry (Gwangju, South Korea).

The subject of series [10] is RK3E-ras-Luc cells. In words: In vivo bioluminescence imaging assay. On the set-up: species or system SD rats. The settings on record: day 10 after treatment, 5 mg/kg i.v. An excerpt: For bioluminescence imaging, the rats received an i.p. injection of luciferin (Molecular Probes, Palo Alto, Calif.) with Rumpun/ketamine (1:1) anesthesia. The rats were imaged using a LAS-1000 plus imaging System (Fuji film. Tokyo. Japan) to record the bioluminescent signal emitted from the tumor. The LAS-1000 system equipped with a CCD camera was used for acquisition of the emitted light, and Living Image software (Multi Gauge v3.0) was used for data analysis.

For series [11], the system named is T1, c-Met, Met M1250T, Ron, VEGF2, EGFR, TrkA, PI3Kγ, IKKβ Insulin receptor, Aurora A.
T1 construct: other: 10 μM
In words: Kinase panel screening (HTRF). Type of series: biochemical. The settings on record: 10 μM. The method, then: (§4) Inhibition of kinase activity against a variety of recombinant kinases (c-Met, Met M1250T, Ron, VEGF2, EGFR, TrkA, PI3Kγ, IKKβ Insulin receptor, Aurora A) was measured using homogeneous time-resolved fluorescence (HTRF) assays. Briefly, assays are based on the phosphorylation of peptide substrates in the presence of ATP. Resulting phosphorylated substrates are detected by TR-FRET (Time Resolved-Fluorescence Resonance Energy Transfer) signal. Recombinant proteins containing kinase domain were purchased from Millipore (Billerica, Mass.). Optimal enzyme, ATP, and substrate concentrations were established for each enzyme using HTRF KinEASE kit (Cisbio) according to the manufacturer's instruction. Assays are consisted of enzymes mixed with serially diluted compounds and peptide substrates in kinase reaction buffer (250 mM HEPES (pH 7.0), 0.5 mM orthovanadate, 0.05% BSA, 0.1% NaN3). Following the addition of reagents for detection, TR-FRET signal was measured using EnVision multi-label reader (Perkin Elmer, Waltham, Mass.).
Background: TR-FRET usually uses a lanthanide donor and a delayed reading to cut background.

Another series deals with T2, TrkA (Homo sapiens, UniProt P04629).
T2 construct: Recombinant proteins containing kinase domain were purchased from Millipore (Billerica, Mass.); purchased Millipore (Billerica, Mass.)
In words: HTRF kinase assay, TrkA. Format: biochemical. The method, then: as §4

In series [12] the test system is several human cancer cell lines. In words: SRB cell proliferation assay, summary over cell lines. Format: cell-based. The settings on record: for IC50: Homo sapiens, range over cell lines, read-out: anti-proliferative IC50, range over cancer cell lines. The method, then: as §1, §2
A further series addresses T3, CDK2/cyclin E (Homo sapiens, UniProt P24941).
T3 construct: purchased Milipore (Billerica, Mass.)
In words: CDK2/cyclin E kinase assay. Format: biochemical. The settings on record: for IC50: ten concentrations, dose response curves, read-out: CDK2/cyclin E inhibitory activity IC50. As for the experimental part: CDK1/cyclin B, CDK2/cyclin E were purchased from Milipore (Billerica, Mass.). The kinase activity was tested in buffer (8 mM MOPS pH 7.0, 0.2 mM EDTA, 10 mM MgAcetate), with 0.1 mg/mL histone H1, in the presence of 45 µM [—^33P] ATP (500 cpm/pmol) for CDK1 or 120 μM [γ—^33P] ATP (500 cpm/pmol) for CDK2 in a final reaction volume of […]. The reaction was initiated by the addition of the MgATP mix. After incubation for 40 min at 30° C., the reaction was stopped by the addition of 5 μL of 3% phosphoric acid solution. 10 μL aliquots of supernatant were spotted onto 2.5 cm×3 cm pieces of Whatman […] phosphocellulose paper, and 20 s later, the filters were washed three times for 5 min in 75 mM phosphoric acid and once in methanol prior to drying. The […] filters were counted in the presence of 1 mL of ACS (Amersham) scintillation fluid. The activities are usually expressed as a percentage of the maximal activity, i.e., in the absence of inhibitors. Controls were applied with appropriate dilutions of DMSO.

The next series concerns the target T4, IKKβ (Homo sapiens, UniProt O14920).
T4 construct: Recombinant proteins containing kinase domain were purchased from Millipore (Billerica, Mass.); purchased Millipore (Billerica, Mass.)
T4 sequence (O14920 15-300 limits assumed): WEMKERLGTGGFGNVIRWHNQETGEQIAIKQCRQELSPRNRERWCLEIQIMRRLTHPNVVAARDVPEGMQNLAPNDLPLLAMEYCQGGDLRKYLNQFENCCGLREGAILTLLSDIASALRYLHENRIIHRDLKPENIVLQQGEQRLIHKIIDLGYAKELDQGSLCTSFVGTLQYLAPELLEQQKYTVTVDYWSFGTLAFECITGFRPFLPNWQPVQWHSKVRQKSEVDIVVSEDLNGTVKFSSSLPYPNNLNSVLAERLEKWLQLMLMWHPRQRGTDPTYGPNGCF
In words: HTRF kinase assay, IKKβ. Format: biochemical. To be noted: dose response curves; read-out: IC50 against IKKβ. The method, then: as §4

Entries after “also recorded” stand apart in the source; their conditions may differ.

T2 sequence (P04629 510-781 limits assumed): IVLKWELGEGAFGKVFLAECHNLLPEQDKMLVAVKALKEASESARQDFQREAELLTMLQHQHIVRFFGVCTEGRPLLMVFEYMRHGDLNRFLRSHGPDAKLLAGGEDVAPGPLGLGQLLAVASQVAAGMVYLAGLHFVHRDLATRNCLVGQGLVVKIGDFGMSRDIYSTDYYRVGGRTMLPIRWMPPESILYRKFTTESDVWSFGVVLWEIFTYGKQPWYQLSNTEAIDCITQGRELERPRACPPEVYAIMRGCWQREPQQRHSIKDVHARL
Sequence of CDK1/cyclin B (P06493 whole entry): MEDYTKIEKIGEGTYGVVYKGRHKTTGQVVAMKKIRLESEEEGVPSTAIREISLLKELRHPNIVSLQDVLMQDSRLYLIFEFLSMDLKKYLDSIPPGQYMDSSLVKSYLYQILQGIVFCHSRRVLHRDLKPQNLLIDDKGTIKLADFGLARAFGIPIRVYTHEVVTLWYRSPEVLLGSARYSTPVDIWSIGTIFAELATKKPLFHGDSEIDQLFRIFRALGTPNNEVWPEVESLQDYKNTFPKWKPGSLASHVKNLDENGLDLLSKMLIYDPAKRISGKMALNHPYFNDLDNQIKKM
Sequence of CDK1/cyclin B (P14635 whole entry partner): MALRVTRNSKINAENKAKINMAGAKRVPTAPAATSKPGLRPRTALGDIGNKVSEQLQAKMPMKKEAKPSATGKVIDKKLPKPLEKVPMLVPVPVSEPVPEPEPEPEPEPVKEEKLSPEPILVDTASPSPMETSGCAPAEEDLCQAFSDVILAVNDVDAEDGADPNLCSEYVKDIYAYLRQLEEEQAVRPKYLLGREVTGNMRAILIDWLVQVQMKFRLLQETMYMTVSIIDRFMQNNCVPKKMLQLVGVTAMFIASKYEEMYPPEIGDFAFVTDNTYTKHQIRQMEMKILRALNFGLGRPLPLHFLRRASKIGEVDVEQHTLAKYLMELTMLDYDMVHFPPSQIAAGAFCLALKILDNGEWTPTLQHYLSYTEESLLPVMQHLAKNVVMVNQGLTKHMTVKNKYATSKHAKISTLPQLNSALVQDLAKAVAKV

For `O=C1Nc2ccc([N+](=O)[O-])cc2C1=C1Nc2ccc(Br)cc2C1=NO` [Compound 2, 5′-Bromo-5-nitro-indirubin-3′-oxime, reference compound], the IC50 is 1450 nM in [1]; 770 nM in the series on K562 human leukemia cell; 16900 nM in [2]; 450 nM in series [3] (Homo sapiens, HCT-116, 72 h); 1160 nM in series [4]; 190 nM in the series with CDK1. In addition, the IC50 in [5] came to 950 nM; in series [6], 1140 nM.
Turning to `O=C1Nc2ccc([N+](=O)[O-])cc2/C1=C1/Nc2ccc(O)cc2C1=NO` [Compound 11b, (2′Z, 3′E)-5′-Hydroxy-5-nitro-indirubin-3′-oxime], in the series on PCNA, the “expression level of PCNA compared with control” value is on record as “decreased”. The “histological analysis of treated tumor” value in the series on RK3E-ras-Luc cells [7] is given as “extensive cell death”. Besides, the IC50 is 13 nM on CDK1/cyclin B; 4000 nM on TrkA (dose response curves, read-out: IC50 against TrkA); 1300 nM in series [4]; 200 to 3300 nM in [12]; 1.91 nM at CDK2/cyclin E; 10000 nM at IKKβ. Also, in series [5], the IC50 was found to be 1200 nM. In the series on RK3E-ras-Luc cells [8], the “TUNEL-positive apoptotic cells compared with control tissue” value is “about 6.0 fold”. Besides, in series [9], the “body weight compared with control” value is recorded as “without loss of body weight; also recorded: no significant difference in body weight”. Further, in the series on RK3E-ras-Luc cells [10], the “luminescence intensity (indicator of tumor growth)” value is given as “significantly decreased”. The “inhibitory activity against kinase panel” value in series [11] was “weak inhibitory activity only against Aurora A, IKKβ and TrkA”. Moreover, at TrkA (1 μM, read-out: inhibitory activity against TrkA), the inhibition at 1 µM was found to be 9%.
Consider `O=C1Nc2ccc([N+](=O)[O-])cc2/C1=C1/Nc2ccc(Cl)cc2C1=NO` [Compound 12b, (2′Z, 3′E)-5′-Chloro-5-nitro-indirubin-3′-oxime], for which the IC50 in [1] is 1250 nM; in the series on K562 human leukemia cell, 560 nM; in [2], 15600 nM; in series [3] it was 330 nM; in series [3] (Homo sapiens, HCT-116, 72 h), about 300 nM; in series [4], 1100 nM. Also, the IC50 on CDK2/cyclin E was determined as 23.5 nM; in series [5], 500 nM; in series [6] it was 1160 nM. Also, the “inhibitory activity against kinase panel” value in series [11] is reported as “negligible inhibitory activities”.
On to `Cc1ccc2c(c1)C(=NO)/C(=C1/C(=O)Nc3ccc([N+](=O)[O-])cc31)N2` [Compound 14b, (2′Z, 3′E)-5′-Methyl-5-nitro-indirubin-3′-oxime], for which the IC50 in series [1] is 3920 nM; with K562 human leukemia cell, 800 nM; in series [2] it was over 20000 nM; in series [3] (Homo sapiens, HCT-116, 72 h), 1410 nM; in [4], 2100 nM; in series [12], 800 to 1000 nM. Also, the results for the IC50 (at CDK2/cyclin E; in series [5]; in [6]) were 8.68 nM, 1060 nM and 1060 nM, respectively. Moreover, the “selectivity for CDK2 over CDK1” value on CDK2/cyclin E (CDK2 vs CDK1) worked out at 7 fold. The “CDK2 inhibitory effect relative to 16b” value at CDK2/cyclin E (enhanced compared with 16b) is 270 fold.
In the case of `COc1ccc2c(c1)C(=NO)/C(=C1/C(=O)Nc3ccc(F)cc31)N2` [Compound 16b, (2′Z, 3′E)-5′-Methoxy-5-fluoro-indirubin-3′-oxime], the IC50 is 4840 nM in series [1]; 5290 nM in the series with K562 human leukemia cell; 6710 nM in series [2]; 3590 nM in [3] (Homo sapiens, HCT-116, 72 h); over 20000 nM in [4]; 4120 nM at CDK2/cyclin E. Further, the IC50 is over 20000 nM in series [5] and 13600 nM in [6]. In addition, the “anti-proliferative activity in words” value in series [12] is “moderate anti-proliferative activity”.
